# Measurements published in publication PMC11820896, “New Compounds with Enhanced Biological Activity Through the Strategic Introduction of Silylated Groups into Hydroxystearic Acids” (Molecules, 2025).
# Like-named read-outs stand apart in the source and are kept apart here.
# What was measured:
# HT29 cells [1] = assay: Cellular content of total magnesium (DCHQ5 assay); type: cell-based, human; details: 24 h treatment
# Description: To evaluate the total magnesium, the fluorimetric DCHQ5 assay was performed according to Nature Protocol. Briefly, the cells were washed in PBS without Mg and Ca three times, accurately counted, and sonicated at 100 W. A standard curve was prepared with a concentration of MgCl2 between 0.5 and 5 µM in buffer MOPS 2 mM in 50% MetOH. The fluorescent probe DCHQ5 15 µM was added, and the fluorescence was recorded on a PTI Quanta Master C60/2000 spectrofluorometer (Photon Technology International, Inc., Birmingham, NJ, USA). A total of 200 µL of the samples was diluted in the MOPS MetOH buffer, DCHQ5 15 µM was added, and the fluorescence was recorded. The amount of Mg was evaluated by interpolating the fluorescence of the sample with respect to the standard curve expressed as nmoles of magnesium/10^6 cells.
# [2] = system: human tumor cell lines (HT29, MCF-7, HeLa, U2OS, and J6); assay: Antiproliferative activity in the series of human tumor cell lines; type: cell-based; details: MTT; concentration range of 10–500 nM
# Description: (§1) The human colorectal adenocarcinoma (Caco-2), human colorectal adenocarcinoma (HT29), normal human intestinal (I407), human cervical cancer (HeLa), human breast cancer (MCF7), human bone osteosarcoma (U2OS), and human acute T-cell leukemia (Jurkat J6) cell lines were purchased from American Type Culture Collection (ATCC, Manassas, VA, USA). Cells were cultured in RPMI 1640 medium (Labtek Eurobio, Milan, Italy), supplemented with 10% FCS (Euroclone, Milano, Italy) and 2 mM L-glutamine (Sigma-Aldrich, Milano, Italy), at 37 °C and in a 5% CO2 atmosphere. The compounds were dissolved in DMSO in a 30–40 mM stock solution. In cell treatments, the final DMSO concentration never exceeded 0.1%.
# (§2) Cells were seeded in a 96-well culture plastic plate (Sarsted, Milan, Italy), at 5 × 10^4 cells/well and, after 24 h, were exposed to increasing concentrations of the different compounds (from 1 nM to 500 nM) dissolved in RPMI 1640 medium. An MTT assay was performed according to Micheletti et al..
# (§3) The absorbance at 570 nm was measured using a multi-well plate reader (Tecan, Männedorf, Switzerland), and data were analyzed by Prism GraphPad 8 software and expressed as IC50 nM.
# HT29 cells [3] = assay: Cell cycle analysis by flow cytometry (PI); type: cell-based, human; details: 50 nM, 24 h
# Description: HT29 cells were treated with compound 4 for 24 h and then detached with 0.11% trypsin/0.02% ethylenediaminetetraacetic acid (EDTA) (Sigma-Aldrich, St. Louis, MO, USA), washed in PBS, and centrifuged. Cells were stained and analyzed according to […] al..
# I407 = assay: MTT assay, normal I407 cells; type: cell-based; details: Homo sapiens; normal intestinal line; MTT after 24 h of treatment; means of four experiments
# Description: as §1, §2, §3
# MCF7 = assay: MTT assay, MCF7 cells; type: cell-based; details: Homo sapiens, means of four experiments, na = not active, read-out: In vitro cytotoxic activity (IC50), MCF7
# Description: as §1, §2, §3
# [4] = system: histones H2/H3 and H4 of HT29 cells; assay: Histone acetylation status, Western blot; type: cell-based, human; details: 50 nM, 6 h
# Description: (§4) HT29 were seeded at a density of 1.5 × 10^4 cell/cm^2 in a Petri dish and, after 24 h, treated for 6 h with 50 nM of compound 4. Cells were harvested, and histones were extracted by previously isolated nuclei according to […] al.. The proteins were resolved on a 10% gel in MES buffer at 200 V for 35 min and immunoblotted with mouse anti-acetylated lysines (Millipore, Billerica, MA, USA) or rabbit anti-γH2Ax (Santa Cruz Biotechnology, Dallas, TX, USA) primary antibodies. The membranes were developed with Clarity Western ECL Substrate (Bio-Rad, Hercules, CA, USA) after incubation with mouse or rabbit secondary horseradish peroxidase-conjugated antibody (GE Healthcare, Chicago, IL, USA). SDS-PAGE was stained with Coomassie Brilliant Blue R-250 (Bio-Rad, Hercules, CA, USA), while densitometric analyses were performed using a Fluor-S Max MultiImager (Bio-Rad, Hercules, CA, USA), and relative quantification of histone acetylation and histone H2Ax phosphorylation signals were normalized to the H1 signal as a control.
# HT29 cells [5] = assay: Western blot of γH2AX (DNA damage); type: cell-based, human; details: 50 nM, 6 h
# Description: as §4
# FASN = FASN mRNA expression, qRT-PCR; type: cell-based, human; details: after 6 h of treatment, HT29
# Description: Total RNA from control- and 4-treated HT29 cells was isolated using the RNeasy Mini Kit (Qiagen, Hilden, Germany) according to the manufacturer's protocol. RNA was quantified using the NanoDrop spectrophotometer (Thermo Fisher Scientific, Waltham, MA, USA). RNA (1 μg) was transcribed into cDNA using the PrimeScript RT Master Mix (Perfect Real Time) (Takara Bio, Kusatsu, Japan) according to the manufacturer's instructions. Real-time PCR was performed using the Sybr Premix Ex Taq Takara kit (Takara Bio, Kusatsu, Japan) and the LightCycler 2.0 instrument (Roche Diagnostic, Basel, Switzerland). The following primers (Sigma-Aldrich, Milan, Italy) were used: [NT] (forward) and [NT] (reverse) for FASN detection, [NT] (forward) and [NT] (reverse) for SCD1 detection, and [NT] (forward) and [NT] (reverse) for the detection of β-actin. The first gene analyzed was the housekeeping gene β-actin, and its CT values were used as standards in the ΔΔCT method of result analysis. cDNA samples from HT29-treated cells were compared with untreated control cells.
# J6 = assay: MTT assay, Jurkat J6 cells; type: cell-based; details: Homo sapiens, means of four experiments, na = not active, read-out: In vitro cytotoxic activity (IC50), J6
# Description: as §1, §2, §3
# HT29 = assay: MTT assay, HT29 cells; type: cell-based, human; details: for IC50: Homo sapiens, HT-29, means of four experiments
# Description: as §1, §2, §3
# HeLa = assay: MTT assay, HeLa cells; type: cell-based; details: Homo sapiens, means of four experiments, na = not active, read-out: In vitro cytotoxic activity (IC50), HeLa
# Description: as §1, §2, §3
smiles,measurement,setting,value
"CCCCCCCCC[C@H](CCCCCCCC(=O)O)O[Si](C)(C)C(C)(C)C [Compound 4, (R)-9-((tert-butyldimethylsilyl)oxy)octadecanoic acid]",reduction in the Mg content,HT29 cells [1],−40%
same,antitumor activity across all cell lines tested,[2],showed antitumor activity
same,decrease in G2/M phase,HT29 cells [3],80.3 ± 6.1%
same,decrease in S phase,HT29 cells [3],66.4 ± 8.9%
same,increase in the G0/G1 phase,HT29 cells [3],41.8 ± 0.2%
same,IC50,I407,61.91 ± 0.26 nM
same,IC50,MCF7,0.2116 ± 0.00023 µM
same,acetylation state of histones H2/H3 and H4,[4],extended increase
same,changes in the γH2AX marker,HT29 cells [5],does not induce any changes
same,FASN gene expression,FASN,marked down-regulation
same,IC50,J6,0.2141 ± 0.00026 µM
same,IC50,"HT29; MTT after 24 h of treatment, read-out: IC50 nM, HT29 (Table 2)",20.9 ± 0.21 nM
same,IC50,"HT29; MTT, na = not active, read-out: In vitro cytotoxic activity (IC50), HT29",20.3 ± 0.24 nM
same,"S.I. (Selective Index), HT29",HT29; versus normal I407 cells,2.96
same,IC50,HeLa,0.1661 ± 0.00033 µM
